From patent US20170273922A1, “UREA AND BIS-UREA BASED COMPOUNDS AND ANALOGUES THEREOF USEFUL IN THE TREATMENT OF ANDROGEN RECEPTOR MEDIATED DISEASES OR DISORDERS” (THE ROYAL INSTITUTION FOR THE ADVACEMENT OF LEARNING/MCGILL …, priority 2014, published 2017)
“Also recorded” adds a separate entry of the source.

Assays:
22Rv1 cells = experiment: MTT assay (cytotoxicity), 22Rv1 cells; format: cell-based; settings: 22Rv1 cells, 72 h, Table 4.2
Procedure, shortened: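 72 h continuous drug exposure, RPMI 1640/10% FBS, MTT endpoint; DMSO vehicle control.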

WT full-length AR = target: T1, WT full-length AR (Homo sapiens, UniProt P10275); experiment: WT full-length AR PSA-luc reporter assay (DHT-induced) in transfected cells; settings: 24 h; for inhibition of DHT-induced activation of WT full-length AR (PSA-luc): 10 nM DHT; for agonism of full-length AR WT (PSA-luc): absence of DHT, PC3 cells
T1 sequence (P10275 1-920): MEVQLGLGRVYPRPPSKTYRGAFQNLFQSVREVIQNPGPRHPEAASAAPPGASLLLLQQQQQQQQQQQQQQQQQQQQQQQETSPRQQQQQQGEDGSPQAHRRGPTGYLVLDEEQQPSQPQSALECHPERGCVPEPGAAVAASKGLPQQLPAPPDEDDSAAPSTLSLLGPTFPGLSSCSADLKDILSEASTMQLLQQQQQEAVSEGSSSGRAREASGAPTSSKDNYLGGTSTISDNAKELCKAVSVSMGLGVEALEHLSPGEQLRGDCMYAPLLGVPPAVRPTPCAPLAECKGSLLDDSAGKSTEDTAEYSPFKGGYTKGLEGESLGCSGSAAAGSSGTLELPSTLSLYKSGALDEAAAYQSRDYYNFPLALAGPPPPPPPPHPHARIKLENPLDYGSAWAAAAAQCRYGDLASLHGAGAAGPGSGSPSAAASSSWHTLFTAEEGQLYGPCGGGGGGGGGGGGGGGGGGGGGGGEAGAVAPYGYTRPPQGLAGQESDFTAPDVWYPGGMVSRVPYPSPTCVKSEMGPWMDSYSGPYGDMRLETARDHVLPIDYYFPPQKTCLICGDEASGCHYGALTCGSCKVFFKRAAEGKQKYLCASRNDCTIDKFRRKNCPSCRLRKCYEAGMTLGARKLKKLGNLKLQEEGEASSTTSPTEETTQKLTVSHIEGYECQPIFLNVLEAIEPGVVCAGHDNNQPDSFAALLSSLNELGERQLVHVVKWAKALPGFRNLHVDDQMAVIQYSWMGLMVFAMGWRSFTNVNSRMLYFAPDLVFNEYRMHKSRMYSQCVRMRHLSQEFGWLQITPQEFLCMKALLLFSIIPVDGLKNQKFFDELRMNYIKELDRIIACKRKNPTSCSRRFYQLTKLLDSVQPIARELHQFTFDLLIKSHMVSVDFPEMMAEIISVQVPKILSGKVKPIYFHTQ

IRF3DBD-AR(1-547) = target: T2, IRF3DBD-AR(1-547) (Homo sapiens, UniProt P10275); experiment: IRF3DBD-AR(1-547) ISRE-luc reporter assay; format: cell-based; settings: 24 h; for inhibition of IRF3DBD-AR(1-547)-mediated ISRE-luc activation: HEK293 cells; for inhibition of IRF3-AR(1-547)-dependent ISRE-luc reporter activity: PC3 cells
T2 construct: IRF3-AR(1-547) is the fusion of IRF3 DBD with the AR NTD (1-547); expressed in transfected cells
T2 sequence (P10275 1-547): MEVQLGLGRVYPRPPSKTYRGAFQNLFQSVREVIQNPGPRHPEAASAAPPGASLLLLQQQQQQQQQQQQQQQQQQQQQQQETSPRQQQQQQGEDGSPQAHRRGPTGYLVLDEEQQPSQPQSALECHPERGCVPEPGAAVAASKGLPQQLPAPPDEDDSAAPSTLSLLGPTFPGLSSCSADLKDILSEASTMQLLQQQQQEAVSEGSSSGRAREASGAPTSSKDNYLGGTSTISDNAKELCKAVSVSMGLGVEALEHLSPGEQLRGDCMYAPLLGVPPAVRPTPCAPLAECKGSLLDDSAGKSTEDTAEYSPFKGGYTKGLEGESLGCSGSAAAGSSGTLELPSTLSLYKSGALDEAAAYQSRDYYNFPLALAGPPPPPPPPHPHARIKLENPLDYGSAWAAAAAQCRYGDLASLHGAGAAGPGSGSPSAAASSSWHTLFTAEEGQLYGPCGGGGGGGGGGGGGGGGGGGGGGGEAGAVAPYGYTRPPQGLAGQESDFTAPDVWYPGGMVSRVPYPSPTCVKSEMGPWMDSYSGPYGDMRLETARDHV

[1] = target: T3, Progesterone receptor (PR) (Homo sapiens, UniProt P06401); experiment: PR MMTV-luc reporter assay in PC3 cells; format: cell-based; design: interference with transcriptional activity of PR: dose or concentration left out as unconfirmed; settings: for effect on PR transcriptional activation (MMTV-luc): 10 nM R5020, PC3 cells, 24 h
T3 construct: expressed in transfected cells; host or cells: PC3
T3 sequence (P06401 1-933): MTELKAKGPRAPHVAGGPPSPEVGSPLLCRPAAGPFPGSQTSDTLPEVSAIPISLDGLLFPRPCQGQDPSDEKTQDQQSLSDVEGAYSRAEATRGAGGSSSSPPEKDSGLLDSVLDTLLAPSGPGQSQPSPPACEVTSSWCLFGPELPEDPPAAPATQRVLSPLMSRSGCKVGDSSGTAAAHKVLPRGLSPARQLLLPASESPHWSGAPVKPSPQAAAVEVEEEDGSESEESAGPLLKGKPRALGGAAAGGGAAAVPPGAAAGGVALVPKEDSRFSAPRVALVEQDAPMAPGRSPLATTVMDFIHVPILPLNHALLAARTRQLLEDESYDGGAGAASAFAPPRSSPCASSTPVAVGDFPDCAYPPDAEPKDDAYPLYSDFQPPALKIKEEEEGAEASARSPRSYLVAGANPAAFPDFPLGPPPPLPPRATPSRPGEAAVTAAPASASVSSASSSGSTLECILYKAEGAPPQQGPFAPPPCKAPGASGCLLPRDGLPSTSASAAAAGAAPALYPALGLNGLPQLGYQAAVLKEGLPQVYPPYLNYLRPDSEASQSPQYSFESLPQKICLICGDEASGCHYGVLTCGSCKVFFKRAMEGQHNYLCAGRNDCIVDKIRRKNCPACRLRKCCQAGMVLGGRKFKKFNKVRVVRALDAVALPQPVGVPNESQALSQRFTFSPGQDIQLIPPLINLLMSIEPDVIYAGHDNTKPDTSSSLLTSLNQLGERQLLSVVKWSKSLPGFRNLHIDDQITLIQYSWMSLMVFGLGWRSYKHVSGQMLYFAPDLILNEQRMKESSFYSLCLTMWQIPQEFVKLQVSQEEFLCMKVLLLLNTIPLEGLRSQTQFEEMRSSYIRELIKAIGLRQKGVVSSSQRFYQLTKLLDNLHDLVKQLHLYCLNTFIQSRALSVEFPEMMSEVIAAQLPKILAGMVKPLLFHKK

SMILES | interference with transcriptional activity of PR [1] | inhibition of IRF3-AR(1-547)-dependent ISRE-luc reporter activity (IRF3DBD-AR(1-547)) | IC50 (22Rv1 cells) [µM] | inhibition of DHT-induced activation of WT full-length AR (PSA-luc) (WT full-length AR) | agonism of full-length AR WT (PSA-luc) (WT full-length AR) | inhibition of IRF3DBD-AR(1-547)-mediated ISRE-luc activation (IRF3DBD-AR(1-547)) | effect on PR transcriptional activation (MMTV-luc) [1]
N#Cc1ccc(NC(=O)Nc2cccc(C(F)(F)F)c2)cc1Cl [Compound 492] | – | – | 1.9 | dose-dependently suppressed; also recorded: dose-dependently inhibit | non-agonist | – | –
O=C(Nc1cccc(C(F)(F)F)c1)Nc1ccc([N+](=O)[O-])c(C(F)(F)F)c1 [Compound 442] | – | – | 1.5 | dose-dependently suppressed; also recorded: dose-dependently inhibit | non-agonist | suppressed | –
N#Cc1ccc(NC(=O)Nc2cccc(C(F)(F)F)c2)cc1C(F)(F)F [Compound 467] | – | – | 1.7 | dose-dependently suppressed; also recorded: dose-dependently inhibit | non-agonist | suppressed | –

Now from value to compound, other results behind:

interference with transcriptional activity of PR [1] | inhibition of IRF3-AR(1-547)-dependent ISRE-luc reporter activity (IRF3DBD-AR(1-547)) | SMILES | IC50 (22Rv1 cells) [µM] | inhibition of DHT-induced activation of WT full-length AR (PSA-luc) (WT full-length AR) | agonism of full-length AR WT (PSA-luc) (WT full-length AR) | inhibition of IRF3DBD-AR(1-547)-mediated ISRE-luc activation (IRF3DBD-AR(1-547)) | effect on PR transcriptional activation (MMTV-luc) [1]
do not interfere | – | O=C(Nc1ccc(Br)nc1)Nc1cc(C(F)(F)F)cc(C(F)(F)F)c1 [Compound 566] | – | – | – | targeting the AR-NTD; also recorded: target the AR-NTD | do not interfere
do not interfere | potently inhibit | O=C(N/C=C/c1cccc(C(F)(F)F)c1)Nc1ccncn1 [Compound 562] | – | dose-dependently inhibit | – | targeting the AR-NTD; also recorded: target the AR-NTD | do not interfere; also recorded: selective towards the AR
do not interfere | potently inhibit | O=C(Nc1cccc(C(F)(F)F)c1)Nc1ccc(NC(=O)c2ccccc2F)c(C(F)(F)F)c1 [Compound 746] | – | dose-dependently inhibit | – | targeting the AR-NTD; also recorded: target the AR-NTD | do not interfere; also recorded: selective towards the AR
